Square brackets hold non-standard residues; d marks the D form. * marks the point of attachment. 2Nal = N[C@@H](Cc1ccc2ccccc2c1)C(=O)O; Propionyl = CCC(=O)*; Sar = CNCC(=O)O
How the values were obtained:
[1] = tested on: female rats exposed to LD70 total body gamma radiation; test: Rat whole body irradiation study; assay type: in vivo
Experimental: FIGS. 16A-B show the percent survival in female SD Rats (n=8/group) administered RWJ-800088 (TPOm) at different time points and dose levels—FIG. 16A: 3000 μg/kg at 6, 24 and 48 hours post TBI (7.18 Gy), and FIG. 16B: 300 and 3000 μg/kg at 24 hours post TBI (7.18 Gy).
RWJ-800088 was administered at a 3000 μg/kg dose by SC injection to female rats (n=8) at 6, 24, or 48 hours and additionally 300 μg/kg dose at 24 hours after exposure to an LD70 total body dose of gamma radiation (Gammacell 3000 irradiator).

[2] = tested on: rhesus monkeys after TBI gamma radiation (600 cGY); test: Rhesus monkey whole body irradiation pilot PK/PD study; assay type: in vivo
Experimental: A pilot PK/PD study was performed to evaluate the efficacy of RWJ-800088 in rhesus monkeys (Study No. 2016-2693—CiToxLAB North America). Rhesus monkeys (n=10/group, 5 male/5 female) were treated with vehicle or RWJ-800088 (a single dose of 30 mg/kg RWJ-800088) administered 24 hours post TBI gamma radiation (600 cGY). […] The ratio of the maximum platelet count to baseline following escalating doses of RWJ-800088 to healthy rhesus monkeys is as follows: 0.97±0.06× at 0.5 mg/kg, 1.08±0.15× at 2 mg/kg, 1.98±0.16× at 10 mg/kg, 2.9±0.03× at 20 mg/kg, and 3.83±0.11× at 40 mg/kg).

[3] = tested on: subjects with cancer receiving platinum-based chemotherapy; test: Study NAP1002: cancer patients receiving platinum-based chemotherapy; assay type: in vivo, human
Experimental: In the second randomized, double-blind Phase 1 study (NAP1002), 46 subjects with cancer receiving platinum-based chemotherapy were enrolled into 3 cohorts: 12 subjects received 1.5 μg/kg RWJ-800088, 12 subjects received 2.25 μg/kg, 10 subjects received 3 μg/kg, and 12 subjects received placebo within 2 hours before administration of platinum-based chemotherapy on Day 1 of the first of 2 chemotherapy cycles. There was a 21-day interval between each chemotherapy cycle.

Mice, ear vein = test: Ear vein model in mice (Table 6); assay type: in vivo, mouse; details: 0.3 mg/kg, whole wrapped cell: Reduced white cell adhesion to endothelium and vascular permeability

Question: For “methoxypolyethyleneglycol20000-propionyl-L-Isoleucyl-L-Glutamyl-Glycyl-L-Prolyl-L-Threonyl-L-Leucyl-L-Arginyl-L-Glutaminyl-L-2-Naphthylalanyl-L-Leucyl-L-Alanyl-L-Alanyl-L-Arginyl-Sarcosyl-Ne-(methoxypolyethyleneglycol20000-propionyl-L-Isoleucyl-L-Glutamyl-Glycyl-L-Prolyl-L-Threonyl-L-Leucyl-L-Arginyl-L-Glutaminyl-L-2-Naphthylalanyl-L-Leucyl-L-Alanyl-L-Alanyl-L-Arginyl-Sarcosyl-)-Lysinamide ({mPEG 20 kDa-Propionyl}-IEGPTLRQ[2Nal]LAAR[Sar]K-NH2; also: dimer: second identical mPEG-propionyl chain on Lys Nε of C-terminal lysinamide) [RWJ-800088]”, which Effects ([1]; Rats, whole body irradiation, whole wrapped cell: Enhanced survival, mitigation against thrombocytopenia, anemia) is on record?
Answer: Enhanced survival,

Question: And the “survival vs vehicle and RWJ-800088 at 48 hours post-irradiation” value ([1]; female rats, 3000 μg/kg SC at 6 and 24 hours post TBI (FIG. 16A))?
Answer: significantly higher

Question: What about the “survival, 3000 μg/kg compared with 300 μg/kg” value ([1]; female rats, 24 hours post irradiation (FIG. 16B)) of the same substance?
Answer: substantially increased

Question: And the Effects ([2]; Rhesus, whole body irradiation, 30 mg/kg, whole wrapped cell: Enhanced survival, mitigation of thrombocytopenia, anemia)?
Answer: Enhanced survival,

Question: What about the “decrease in RBC, reticulocytes and WBC vs irradiated vehicle” value ([2]; irradiated animals, 30 mg/kg 24 hours post-TBI (FIG. 18B-D)) of the same substance?
Answer: less severe decrease

Question: What about the “platelet counts, nadir and recovery” value ([2]; sham or irradiated animals, 30 mg/kg 24 hours post-TBI (FIG. 18A)) of the same substance?
Answer: beneficial effects on platelet counts

Question: And the “survival (animals surviving)” value ([2]; single dose 30 mg/kg 24 hours post TBI 600 cGY, n=10/group (FIG. 17))?
Answer: 9/10

Question: What about the “nadir and peak mean platelet counts vs placebo” value ([3]; 1.5 μg/kg) of the same substance?
Answer: similar

Question: What about the “day up to which mean platelet counts continued to decline” value ([3]; 1.5 μg/kg, each cycle) of the same substance?
Answer: 15 days

Question: What about the “platelet nadir and peak platelet counts, fold higher relative to placebo” value ([3]; 3 μg/kg) of the same substance?
Answer: approximately 2 fold

Question: What about the “day of peak mean platelet counts” value ([3]; 3.0 μg/kg, both cycles) of the same substance?
Answer: 15 days

Question: What about the “serious adverse event of thrombocythemia (number)” value ([3]; 1.5, 2.25, and 3 μg/kg) of the same substance?
Answer: 1

Question: And the tolerability ([3]; 1.5, 2.25, and 3 μg/kg with platinum-based chemotherapy)?
Answer: well-tolerated

Question: What about the “day on which mean platelet counts were lowest” value ([3]; 2.25 and 3.0 μg/kg, each cycle) of the same substance?
Answer: 10 days

Question: What about the “nadir and peak platelet counts, fold higher than placebo” value ([3]; 2.25 or 3.0 μg/kg) of the same substance?
Answer: approximately 2 fold

Question: And the “Maximum Platelet Counts, GMR (Active/Placebo)” value ([3]; Across cycles, 1.5 μg/kg)?
Answer: 1.0

Question: What about the “Maximum Platelet Counts, Geometric Mean” value ([3]; Across cycles, 1.5 μg/kg) of the same substance?
Answer: 374760 µL⁻¹

Question: What about the “Minimum Platelet Counts, GMR (Active/Placebo)” value ([3]; Across cycles, 1.5 μg/kg) of the same substance?
Answer: 0.6

Question: And the “Minimum Platelet Counts, Geometric Mean” value ([3]; Across cycles, 1.5 μg/kg)?
Answer: 34570 µL⁻¹

Question: And the “Maximum Platelet Counts, GMR (Active/Placebo)” value ([3]; Across cycles, 2.25 μg/kg)?
Answer: 1.6

Question: What about the “Maximum Platelet Counts, Geometric Mean” value ([3]; Across cycles, 2.25 μg/kg) of the same substance?
Answer: 574270 µL⁻¹

Question: And the “Minimum Platelet Counts, GMR (Active/Placebo)” value ([3]; Across cycles, 2.25 μg/kg)?
Answer: 2.7

Question: And the “Minimum Platelet Counts, Geometric Mean” value ([3]; Across cycles, 2.25 μg/kg)?
Answer: 165790 µL⁻¹

Question: And the “Maximum Platelet Counts, GMR (Active/Placebo)” value ([3]; Across cycles, 3.0 μg/kg)?
Answer: 1.8

Question: And the “Maximum Platelet Counts, Geometric Mean” value ([3]; Across cycles, 3.0 μg/kg)?
Answer: 662940 µL⁻¹

Question: What about the “Minimum Platelet Counts, GMR (Active/Placebo)” value ([3]; Across cycles, 3.0 μg/kg) of the same substance?
Answer: 2.2

Question: What about the “Minimum Platelet Counts, Geometric Mean” value ([3]; Across cycles, 3.0 μg/kg) of the same substance?
Answer: 134260 µL⁻¹

Question: And the “Maximum Platelet Counts, GMR (Active/Placebo)” value ([3]; Cycle 1, 1.5 μg/kg)?
Answer: 1.1

Question: What about the “Maximum Platelet Counts, Geometric Mean” value ([3]; Cycle 1, 1.5 μg/kg) of the same substance?
Answer: 329180 µL⁻¹

Question: And the “Minimum Platelet Counts, GMR (Active/Placebo)” value ([3]; Cycle 1, 1.5 μg/kg)?
Answer: 0.5

Question: What about the “Minimum Platelet Counts, Geometric Mean” value ([3]; Cycle 1, 1.5 μg/kg) of the same substance?
Answer: 46800 µL⁻¹

Question: And the “Maximum Platelet Counts, GMR (Active/Placebo)” value ([3]; Cycle 1, 2.25 μg/kg)?
Answer: 1.9

Question: What about the “Maximum Platelet Counts, Geometric Mean” value ([3]; Cycle 1, 2.25 μg/kg) of the same substance?
Answer: 564360 µL⁻¹

Question: What about the “Minimum Platelet Counts, GMR (Active/Placebo)” value ([3]; Cycle 1, 2.25 μg/kg) of the same substance?
Answer: 2.3

Question: What about the “Minimum Platelet Counts, Geometric Mean” value ([3]; Cycle 1, 2.25 μg/kg) of the same substance?
Answer: 217590 µL⁻¹

Question: And the “Maximum Platelet Counts, GMR (Active/Placebo)” value ([3]; Cycle 1, 3.0 μg/kg)?
Answer: 2.1

Question: What about the “Maximum Platelet Counts, Geometric Mean” value ([3]; Cycle 1, 3.0 μg/kg) of the same substance?
Answer: 642690 µL⁻¹

Question: And the “Minimum Platelet Counts, GMR (Active/Placebo)” value ([3]; Cycle 1, 3.0 μg/kg)?
Answer: 2.0

Question: And the “Minimum Platelet Counts, Geometric Mean” value ([3]; Cycle 1, 3.0 μg/kg)?
Answer: 188250 µL⁻¹

Question: What about the “Maximum Platelet Counts, GMR (Active/Placebo)” value ([3]; Cycle 2, 1.5 μg/kg) of the same substance?
Answer: 0.9

Question: What about the “Maximum Platelet Counts, Geometric Mean” value ([3]; Cycle 2, 1.5 μg/kg) of the same substance?
Answer: 294150 µL⁻¹

Question: What about the “Minimum Platelet Counts, GMR (Active/Placebo)” value ([3]; Cycle 2, 1.5 μg/kg) of the same substance?
Answer: 0.9

Question: And the “Minimum Platelet Counts, Geometric Mean” value ([3]; Cycle 2, 1.5 μg/kg)?
Answer: 76170 µL⁻¹

Question: What about the “Maximum Platelet Counts, GMR (Active/Placebo)” value ([3]; Cycle 2, 2.25 μg/kg) of the same substance?
Answer: 1.3

Question: And the “Maximum Platelet Counts, Geometric Mean” value ([3]; Cycle 2, 2.25 μg/kg)?
Answer: 401870 µL⁻¹

Question: And the “Minimum Platelet Counts, GMR (Active/Placebo)” value ([3]; Cycle 2, 2.25 μg/kg)?
Answer: 2.2

Question: What about the “Minimum Platelet Counts, Geometric Mean” value ([3]; Cycle 2, 2.25 μg/kg) of the same substance?
Answer: 177540 µL⁻¹

Question: And the “Maximum Platelet Counts, GMR (Active/Placebo)” value ([3]; Cycle 2, 3.0 μg/kg)?
Answer: 1.4

Question: And the “Maximum Platelet Counts, Geometric Mean” value ([3]; Cycle 2, 3.0 μg/kg)?
Answer: 434100 µL⁻¹

Question: And the “Minimum Platelet Counts, GMR (Active/Placebo)” value ([3]; Cycle 2, 3.0 μg/kg)?
Answer: 2.2

Question: What about the “Minimum Platelet Counts, Geometric Mean” value ([3]; Cycle 2, 3.0 μg/kg) of the same substance?
Answer: 179930 µL⁻¹

Question: What about the “Change From Baseline in Hemoglobin, Difference of LS Mean (SE) vs Placebo” value ([3]; Day 42, 1.5 μg/kg) of the same substance?
Answer: 0.54 g/dL

Question: What about the “Change From Baseline in Hemoglobin, LS Mean (SE)” value ([3]; Day 42, 1.5 μg/kg) of the same substance?
Answer: −1.63 (0.50) g/dL

Question: What about the “Change From Baseline in Hemoglobin, Difference of LS Mean (SE) vs Placebo” value ([3]; Day 42, 2.25 μg/kg) of the same substance?
Answer: 0.57 g/dL

Question: And the “Change From Baseline in Hemoglobin, LS Mean (SE)” value ([3]; Day 42, 2.25 μg/kg)?
Answer: −1.60 (0.42) g/dL

Question: What about the “Change From Baseline in Hemoglobin, Difference of LS Mean (SE) vs Placebo” value ([3]; Day 42, 3.0 μg/kg) of the same substance?
Answer: 1.00 g/dL

Question: And the “Change From Baseline in Hemoglobin, LS Mean (SE)” value ([3]; Day 42, 3.0 μg/kg)?
Answer: −1.16 (0.47) g/dL

Question: And the “decrease of mean Hb concentration from baseline” value ([3]; Day 42, 3.0-μg/kg group)?
Answer: 1.16 g/dL

Question: And the “Change From Baseline in Hemoglobin, Difference of LS Mean (SE) vs Placebo” value ([3]; Day 63, 1.5 μg/kg)?
Answer: -0.75 g/dL

Question: What about the “Change From Baseline in Hemoglobin, LS Mean (SE)” value ([3]; Day 63, 1.5 μg/kg) of the same substance?
Answer: −2.98 (0.70) g/dL

Question: What about the “Change From Baseline in Hemoglobin, Difference of LS Mean (SE) vs Placebo” value ([3]; Day 63, 2.25 μg/kg) of the same substance?
Answer: 0.68 g/dL

Question: What about the “Change From Baseline in Hemoglobin, LS Mean (SE)” value ([3]; Day 63, 2.25 μg/kg) of the same substance?
Answer: −1.55 (0.61) g/dL

Question: What about the “Change From Baseline in Hemoglobin, Difference of LS Mean (SE) vs Placebo” value ([3]; Day 63, 3.0 μg/kg) of the same substance?
Answer: 0.79 g/dL

Question: What about the “Change From Baseline in Hemoglobin, LS Mean (SE)” value ([3]; Day 63, 3.0 μg/kg) of the same substance?
Answer: −1.44 (0.61) g/dL

Question: And the “Change From Baseline in Hemoglobin, Difference of LS Mean (SE) vs Placebo” value ([3]; Day 84, 1.5 μg/kg)?
Answer: 0.05 g/dL

Question: What about the “Change From Baseline in Hemoglobin, LS Mean (SE)” value ([3]; Day 84, 1.5 μg/kg) of the same substance?
Answer: −1.88 (0.59) g/dL

Question: What about the “Change From Baseline in Hemoglobin, Difference of LS Mean (SE) vs Placebo” value ([3]; Day 84, 2.25 μg/kg) of the same substance?
Answer: 0.03 g/dL

Question: And the “Change From Baseline in Hemoglobin, LS Mean (SE)” value ([3]; Day 84, 2.25 μg/kg)?
Answer: −1.90 (0.55) g/dL

Question: What about the “Change From Baseline in Hemoglobin, Difference of LS Mean (SE) vs Placebo” value ([3]; Day 84, 3.0 μg/kg) of the same substance?
Answer: 1.13 g/dL

Question: What about the “Change From Baseline in Hemoglobin, LS Mean (SE)” value ([3]; Day 84, 3.0 μg/kg) of the same substance?
Answer: −0.80 (0.59) g/dL

Question: And the Effects ([3]; Humans, Phase 1b study, whole wrapped cell: Protection against thrombocytopenia and anemia)?
Answer: Protection against

Question: What about the “day of mean peak platelet counts” value ([3]; lower doses (1.5, 2.25 μg/kg), both cycles) of the same substance?
Answer: 21 days

Question: What about the “transient platelet increase, times the baseline” value ([3]; two subjects at 3.0 μg/kg, first cycle (stopping criteria)) of the same substance?
Answer: more than 3 times the baseline

Question: What about the Effects (Mice, ear vein) of the same substance?
Answer: Reduced white cell

— US20220168392A1 (priority 2019, published 2022)
